Laboratory results reported in patent publication US20160220542A1, “SYNERGISTIC ACTIVITY OF MODULATORS OF THE NO METABOLISM AND OF NADPH OXIDASE IN THE SENSITISATION OF TUMOR CELLS” (Universitaetsklinikum Freiburg, priority 2010, published 2016).

Target: T1, NADPH oxidase (Rattus norvegicus, UniProt Q9WV87)
T1 construct: 12 500 208Fsrc3 cells (100 μl) received the stated concentrations of Cu SOD and 120 μM EUK-8; endogenous in cells; host or cells: 208Fsrc3 transformed rat fibroblasts
T1 sequence (Q9WV87 1-563): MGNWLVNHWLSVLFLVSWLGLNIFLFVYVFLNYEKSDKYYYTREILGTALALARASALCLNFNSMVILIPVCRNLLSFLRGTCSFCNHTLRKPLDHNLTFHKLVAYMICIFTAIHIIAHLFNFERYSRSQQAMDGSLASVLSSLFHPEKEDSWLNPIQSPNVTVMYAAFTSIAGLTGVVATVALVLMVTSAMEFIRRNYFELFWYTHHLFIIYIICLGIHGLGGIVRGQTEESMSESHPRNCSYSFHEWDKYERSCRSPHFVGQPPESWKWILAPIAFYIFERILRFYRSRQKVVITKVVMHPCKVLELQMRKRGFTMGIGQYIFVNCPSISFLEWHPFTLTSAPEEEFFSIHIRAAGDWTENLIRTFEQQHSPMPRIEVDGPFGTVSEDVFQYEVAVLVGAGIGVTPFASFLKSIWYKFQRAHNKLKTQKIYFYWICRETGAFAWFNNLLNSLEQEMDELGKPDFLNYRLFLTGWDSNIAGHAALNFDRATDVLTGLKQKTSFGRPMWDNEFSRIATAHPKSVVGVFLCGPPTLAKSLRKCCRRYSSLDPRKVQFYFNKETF
T1 sequence (Q62737 1-192 partner): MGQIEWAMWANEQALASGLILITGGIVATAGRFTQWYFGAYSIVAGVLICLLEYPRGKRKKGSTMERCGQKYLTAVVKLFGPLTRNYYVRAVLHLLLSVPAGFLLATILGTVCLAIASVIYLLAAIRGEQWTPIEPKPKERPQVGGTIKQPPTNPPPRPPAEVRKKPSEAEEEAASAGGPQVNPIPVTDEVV
Assay: superoxide anion concentration after inhibition of NADPH oxidase (Cu SOD bell curve shift)
Type: cell-based
Conditions: 208Fsrc3, 120 μM EUK-8, 5 hours
Method: 12 500 208Fsrc3 cells (100 μl) received the stated concentrations of Cu SOD and 120 μM EUK-8. In addition the stated concentrations of the NADPH oxidase inhibitor AEBSF (4-(2-Aminoethyl)-benzenesulfonyl fluoride) were added. Control preparations remained free of AEBSF. After 5 hours the percentages of apoptotic cells were determined in duplicate preparations.

Question: Which “reduction in superoxide anion concentration on doubling of the inhibitor concentration” value does the source give for `NCCc1ccc(S(=O)(=O)F)cc1` [AEBSF, 4-(2-Aminoethyl)-benzenesulfonyl fluoride] here?
Answer: fourfold
